Laboratory results: publication PMC12040169 (PLOS Biology, 2025)

assay: in vitro; details: human, hela cells, % viability

Compound | viability at 28.5 h, 10 µM [%]
Cc1ccc(N2C(=O)C(CC(=O)Nc3cccc(F)c3)N(CCc3ccncc3)C2=O)cc1 (stereo not shown) [CBK268891] | 96.5
O=C(NCC(=O)N1CCCC1c1cccs1)c1cccc(Br)c1 (stereo not shown) [CBK305655] | 99.2
COc1ccc(C(=O)C(OC(=O)c2cc(O)nc3ccccc23)c2ccccc2)cc1 (stereo not shown) [CBK264083] | 97.1
CN1CCN(c2ccc(/C=c3\sc4nc5ccccc5n4c3=O)cc2[N+](=O)[O-])CC1 [CBK263048] | 89.3
O=C(NCc1ccc(Cl)cc1)C1CCCN1c1nc(O)cc(C(F)(F)F)n1 (stereo not shown) [CBK003706] | 115
CCOc1ccc(NC(=O)NC(=O)C2CCN(C(C)=O)CC2)cc1 [CBK034852] | 119
O=C(CCn1cc(Br)ccc1=O)NC1CCN(Cc2ccccc2)CC1 [CBK305778] | 101
Cn1nnc(NC(=O)COc2ccc(C3CCCCC3)cc2)n1 [CBK266442] | 95.9
Cn1c(=O)c2ncn(CC(=O)Nc3cccc(C(=O)O)c3)c2n(C)c1=O [CBK266838] | 98.4
CC(C)Nc1cncc(Sc2cccc(C(=O)O)c2)n1 [CBK093582] | 95.1
Cc1cc(COc2nc3ccccc3nc2NCCCCO)no1 [CBK173985] | 94.1
Cc1ccc(-c2nnc(SCc3cccc4nsnc34)n2C)cc1 [CBK269706] | 92.7
COC(=O)c1ccc(COc2nc3ccccc3nc2/C=C/c2cccc([N+](=O)[O-])c2)cc1 [CBK268776] | 112
Cc1ccc(C(=O)n2c(=S)nc3ccccn32)cc1 [CBK025729] | 91.9
CC(=O)c1cc(C#N)c(SCC(=O)O)nc1C [CBK270189] | 95.8
Oc1ccc(NCc2ccc(OCc3cccs3)cc2)cc1 [CBK266586] | 89
COc1ccc([C@@]23CC[C@@H](NC(=O)Nc4ccc(Cl)cc4[N+](=O)[O-])C[C@@H]2N(C)CC3)cc1OC [CBK036474T] | 84.1
N=c1n(CC(=O)c2ccc(-c3ccccc3)cc2)c2ccccc2n1Cc1ccccc1 [CBK262128B] | 99.3
Cc1nn(C)c(Cl)c1CN1CCCC(CCC(=O)N2CCN(C)CC2)C1 (stereo not shown) [CBK307716] | 92.5
COc1ccc(-c2cc(C(=O)Nc3cccc(C(=O)O)c3)cnc2-c2ccc(F)cc2)cn1 [CBK038064] | 91.3
CS(=O)(=O)c1ccc(-n2nnnc2CN2CCC3(CCCCC3)C2)cc1 [CBK306183] | 91.1
CCOC(=O)c1[nH]c2ccccc2c1NC(C)=O [CBK086755] | 92.7

Compound | viability at 28.5 h, 10 µM [%]
COc1cc2c(cc1OC)CN(CCN1CCCCC1)CC2 [CBK126439] | 101
O=C(CCn1ccnc1)NCC1Cc2ccccc2O1 (stereo not shown) [CBK283062] | 81
COC(=O)c1cnn(-c2cc(Oc3ccccc3C)ncn2)c1N [CBK098668] | 102
O=C(O)CCCn1cc(NC(=O)c2cc(F)c(F)cc2Cl)cn1 [CBK269967] | 87.8
CCOc1cc(S(=O)(=O)NCCCN2CCOCC2)c(C)cc1C [CBK268764] | 99
CN1CCN(C(=O)c2sccc2NS(=O)(=O)c2ccc3ccccc3c2)CC1 [CBK004631] | 91.7
CCc1nc(CN(C)C2CCN(CC(=O)NCc3ccco3)C2)no1 (stereo not shown) [CBK305328] | 111
c1cc(-c2ccc(Nc3ccc(N4CCOCC4)cc3)nc2)cs1 [CBK036844] | 97.6
Cc1cccc(OC(=O)C2C(c3ccccc3)C(C(=O)O)C2c2ccccc2)c1 (stereo not shown) [CBK263843] | 94
Cc1cc(-c2cnoc2C2CCCN(C(=O)c3cccs3)C2)on1 (stereo not shown) [CBK284480] | 102
O=S(=O)(NC1CCN(Cc2ccccc2)CC1)c1cccc2nsnc12 [CBK062029] | 80.8
c1coc(CCC2NCCn3cccc32)c1 (stereo not shown) [CBK023964F] | 95.2
COc1ccccc1-n1nc(-c2ccncc2)nc1C1CCOCC1 [CBK307229] | 95
FC(F)(F)c1cnc(Sc2c[nH]nn2)c(Cl)c1 [CBK007252] | 93.3
COc1cc(C(=O)c2ccc(Cl)cc2)cc(Br)c1OCCN1CCOCC1 [CBK010131C] | 96.5
Cc1ccc(S(=O)(=O)CC(=O)Nc2ncccn2)cc1 [CBK269800] | 97.3
CCC1(CC)OC(N[C@@H](C)c2ccc3ccccc3c2)=NC1=O [CBK123982] | 90.2
CC1CC1C(=O)NCC(=O)Nc1nc2ccc(OC(F)(F)F)cc2s1 (stereo not shown) [CBK297874] | 98.3
COc1ccccc1C(=O)N1CCC(Cc2ccc(-c3cccc(C)c3)cc2)(C(N)=O)CC1 [CBK285792] | 89.8
Cc1cc(O)cc(C2CCCN(C(=O)c3ccc(F)c(F)c3)C2)n1 (stereo not shown) [CBK283406] | 105
Cc1ccc(-n2ncc3c(=O)n(CC(=O)N4CCCCC4)cnc32)cc1 [CBK287532] | 101
COc1ccnc(N2CCN(C(=O)C3(C#N)CCCCC3)CC2)n1 [CBK305739] | 92.2

Compound | viability at 28.5 h, 10 µM [%]
Cc1cc(=O)n(CC(=O)N2CCC3(CCCN(C(C)C)C3=O)C2)nc1C (stereo not shown) [CBK307482] | 90
CN(C)CCN(C)C(=O)c1ccc(-c2cccc(C(=O)NCCO)c2)nc1N1CCOCC1 [CBK076592] | 92.5
O=C(O)CSCC(=O)c1ccccc1 [CBK262140] | 93.1
Cn1c(=O)c2cnc(-c3ccccc3Cl)nc2n(C)c1=O [CBK291219] | 85.7
COc1cc(CN2CCN(Cc3cccc4ccccc34)CC2)c([N+](=O)[O-])cc1OC [CBK074450G] | 106
O=C(Cn1c2ccccc2n2ncnc12)c1ccc(-c2ccccc2)cc1 [CBK263097] | 106
CCOc1cccc(-c2cncc(N3CCCC3CO)n2)c1 (stereo not shown) [CBK066004] | 89.7
CCOC(=O)c1cnn2c(O)cc(CN3CCCC3c3ccsc3)nc12 (stereo not shown) [CBK305647] | 96.1
CCN(CC)CCN(CCc1ccc(OC)c(OC)c1)C(=O)Nc1ccc(Cl)cc1 [CBK160510] | 96.6
Cn1c(N2CCC(C(=O)NCC3CC3)CC2)nc2ccccc21 [CBK283957] | 91.6
Cc1ccccc1C(=O)NC1(C(F)(F)F)C(=O)Nc2c1c(=O)[nH]c(=O)n2CCc1ccccc1 (stereo not shown) [CBK267483] | 86.6
CCOc1ccc(CNc2sc3c(c2C(=O)Nc2ccc(OC)cc2)CCC3)cc1 [CBK294473] | 80.6
CC(=O)c1ccc(S(=O)(=O)NCC2CC2)cc1 [CBK044440] | 100
N#Cc1ccc(Cn2cc(C(=O)C(N)=O)c3ccccc32)cc1 [CBK270062] | 84.2
O=C1CCCN1CCOc1nccnc1-c1ccsc1 [CBK106759] | 89.7
Cc1cc(CN(C)Cc2ccc(-n3ccnc3C)cc2)n[nH]1 [CBK281989] | 97.6
Cc1ccc(-c2ncc(OCCn3ccnc3)nc2N)cc1C [CBK145148] | 102
CCN(CC(=O)NCc1ccc(Cl)cc1)S(=O)(=O)c1ccc(OC)cc1 [CBK305836] | 92.6
COc1ccc(C(=O)Nc2ccccc2)cc1NC(=O)c1cc(C(F)(F)F)cc(C(F)(F)F)c1 [CBK263465] | 90
CCn1c(=O)n(CC(=O)NCc2ccccc2F)c2cccnc21 [CBK283890] | 86.8
NCc1ccc(C(=O)N(CCc2cc(C(F)(F)F)cc(C(F)(F)F)c2)c2ccc(Cl)c(Cl)c2)cc1 [CBK008632T] | 112
COc1cc(CNc2nc(-c3c(C)cccc3C)cn3ccnc23)cc(OC)c1OC [CBK037415] | 91.1

Compound | viability at 28.5 h, 10 µM [%]
O=C(c1nc2ccccc2s1)C1CCN(C(=O)c2ccco2)CC1 [CBK284234] | 83.6
Nc1ncc(-c2ccsc2)c2cccnc12 [CBK067580] | 97.5
O=C(O)CCN1CCn2c3c(c4cc(C5CCCCC5)ccc42)CCCC31 (stereo not shown) [CBK263236] | 91.4
Nc1c(C(=S)c2cccs2)oc2c1C(c1ccccc1)CC(=O)N2 (stereo not shown) [CBK020690] | 42.2
CS(=O)(=O)N[C@H]1CO[C@H]2[C@@H]1OC[C@H]2OC(=O)Nc1cccc2ccccc12 [CBK289469] | 89
Cc1nccn1CCNC(=O)CCc1cn(C)c2ccccc12 [CBK281962] | 86.1
CC(C)(CC(=O)O)CC(=O)Nc1ccc(N2CCCC2=O)cc1 [CBK299787] | 109
CCN(Cc1cccnc1)C(CC1CCCCC1)c1ccccc1 (stereo not shown) [CBK061673] | 98
CCn1c(=O)n(CC(=O)N2CC(C)CC(C)C2)c2cccnc21 (stereo not shown) [CBK283845] | 95.3
Cc1ccc(-c2cnc3ccccc3n2)cc1NC(=O)c1ccccc1S(=O)(=O)c1ccc([N+](=O)[O-])cc1 [CBK267690] | 110
CC1CNCCN1C(=O)c1cnn(-c2cccc(Cl)c2)c1 (stereo not shown) [CBK304238] | 94.1
CCc1nnc(NS(=O)(=O)c2ccc(NC(=O)c3ccccc3[N+](=O)[O-])cc2)s1 [CBK045494] | 94.2
COc1ccc(S(=O)(=O)N(C)CC(=O)Nc2cccc(C(F)(F)F)c2)cc1OC [CBK266242] | 95.5
CCC1CCCCN1C(=O)c1ccc(C)c(OC)c1 (stereo not shown) [CBK081557] | 103
O=C(CCN1C(=O)c2cccc3cccc(c23)C1=O)Oc1ccc2c(c1)OCO2 [CBK266237] | 106
Cc1c(OCc2ccccc2)ccc2c1OC1(CCN(C(=O)c3ccccn3)CC1)CC2=O [CBK156441] | 106
N#CCCn1cc(C(=O)N2CCCCC2)c(-c2cccc(Br)c2)n1 [CBK306202] | 89.4
O=C(c1cncc(O)c1)N1C2CCC1CC(c1ccc(F)cc1)C2 (stereo not shown) [CBK283764] | 96.4
O=C(COC(=O)c1ccc(Cl)c(Cl)c1)c1ccc(Oc2ccc([N+](=O)[O-])cc2)cc1 [CBK264821] | 117
CC1CN(Cc2nc3c(c(=O)n(C)c(=O)n3C)n2CCCc2ccccc2)CC(C)O1 (stereo not shown) [CBK269349] | 91.7
COc1cc(/C=C2/SC(=N)NC2=O)ccc1OCc1ccccc1[N+](=O)[O-] [CBK262181] | 85.4
COCCc1noc(CC2CCN(c3ncc(C#N)cc3F)CC2)n1 [CBK304153] | 115
